Assay results published in patent publication US10702521B2, “Methods for treating neisseria gonorrhoeae infection with substituted 1,2-dihydro-2A,5,8A-triazaacenaphthylene-3,8-diones” (priority 2014, dated 2020).
Structures can show the parent of a compound that is named as a salt. Where two headings read alike, the source gives them in different places.

Tests used:
[1] = system: Mycobacterium tuberculosis H37Rv; experiment: Mycobacterium tuberculosis H37Rv Inhibition Assay (resazurin MIC); type: cell-based
[2] = system: N. gonorrhoeae MS11; experiment: MIC / susceptibility of N. gonorrhoeae MS11 (strain of the mouse model); type: cell-based, Neisseria gonorrhoeae
[3] = system: N. gonorrhoeae MS11; experiment: Mouse model of N. gonorrhoeae vaginal colonization; type: in vivo, mice; settings: for mice in which colonization with N. gonorrhoeae MS11 was eliminated by the end of the study: two studies
Procedure: A mouse model of N. gonorrhoeae vaginal colonization was performed to evaluate the efficacy of compounds of the present invention. Two independent studies were performed by the same laboratory.
In particular, Example 39 (i.e., (2R)-2-({4-[(3,4-Dihydro-2H-pyrano[2,3-c]pyridin-6-ylmethyl)amino]-1-piperidinyl}methyl)-1,2-dihydro-3H, 8H-2a,5,8a-triazaacenaphthylene-3,8-dione hydrochloride) was tested in this model following a single oral dose or a total of two oral doses administered on the same day. Female mice were primed for colonization using estradiol; trimethoprim sulfate and streptomycin were administered to control commensals. On day 0, mice were inoculated intravaginally with N. gonorrhoeae MS11 (Example 39—MIC 1 μg/ml). Successful colonization was confirmed via vaginal swab culture on days 1 and 2. Single oral doses at 100 mg/kg and 200 mg/kg or a total of two oral doses at 100 mg/kg each of Example 39 were administered on day 2. Vaginal swabs for quantitative culture were collected daily through day 10 (8 days post treatment).

[4] = Estimation of PK parameters from blood samples in mice; type: in vivo; settings: estimated
Procedure: In one study, blood samples were collected terminally from a separate group of mice at 1, 2, 6 and 12 hours post Example 39 administration (n=3 per time point and dose) to allow for estimation of PK parameters.

[5] = system: Neisseria gonorrhoeae; experiment: In vitro MIC by CLSI agar dilution against Neisseria gonorrhoeae isolates; type: cell-based; settings: for MIC90: Neisseria gonorrhoeae
[6] = system: Staphylococcus aureus, Streptococcus pneumoniae, Streptococcus pyogenes, Enterococcus faecalis, Enterococcus faecium, Haemophilus influenzae, Moraxella …; experiment: Antimicrobial Activity Assay: whole-cell MIC by broth microdilution (CLSI M7-A7); type: cell-based, Gram-positive and Gram-negative organisms; settings: against a strain of at least one of the organisms listed
Procedure: Whole-cell antimicrobial activity was determined by broth microdilution using the Clinical and Laboratory Standards Institute (CLSI) recommended procedure, Document M7-A7, “Methods for Dilution Susceptibility Tests for Bacteria that Grow Aerobically”. The compounds were tested in serial two-fold dilutions ranging from 0.016 to 16 mcg/ml.
The minimum inhibitory concentration (MIC) was determined as the lowest concentration of compound that inhibited visible growth. A mirror reader was used to assist in determining the MIC endpoint.
Compounds were evaluated against Gram-positive organisms, selected from Staphylococcus aureus, Streptococcus pneumoniae, Streptococcus pyogenes, Enterococcus faecalis and Enterococcus faecium.
In addition, compounds were evaluated against Gram-negative organisms selected from Haemophilus influenzae, Moraxella catarrhalis, Escherichia coli, Pseudomonas aeruginosa, Proteus mirabilis, Enterobacter cloacae, Enterobacter aerogenes, Klebsiella pneumoniae and Stenotrophomonas maltophilia.

[7] = 144 h, H37Rv strain, six days incubation, resazurin fluorescence after 48 hours, read-out: MIC value
[8] = H37Rv strain, six days incubation, resazurin fluorescence after 48 hours, read-out: MIC value
[9] = 144 h, read-out: MIC value, H37Rv strain, six days incubation, resazurin fluorescence after 48 hours
[10] = read-out: MIC value, H37Rv strain, six days incubation, resazurin fluorescence after 48 hours

O=c1ccc2ccc(=O)n3c2n1C[C@H]3CN1CCC(NCc2ccc3c(c2)OCCO3)CC1 [Example 30, (1R)-1-({4-[(2,3-Dihydro-1,4-benzodioxin-6-ylmethyl)amino]-1-piperidinyl}methyl)-1,2-dihydro-4H,9H-imidazo[1,2,3-ij]-1,8-naphthyridine-4,9-dione hydrochloride]
MIC [1, 7]: < 2 µg/mL

O=c1ccc2ncc(=O)n3c2n1C[C@H]3CN1CCC(NCc2cc3c(cn2)OCCC3)CC1 [Example 39, (2R)-2-({4-[(3,4-Dihydro-2H-pyrano[2,3-c]pyridin-6-ylmethyl)amino]-1-piperidinyl}methyl)-1,2-dihydro-3H,8H-2a,5,8a-triazaacenaphthylene-3,8-dione hydrochloride]
MIC [1, 8]: < 2 µg/mL
MIC ([2]; Neisseria gonorrhoeae, N. gonorrhoeae MS11): 1 µg/mL
change in susceptibility of N. gonorrhoeae MS11 colonies recovered from treated mice ([2]; compared with stock cultures of the organism): did not demonstrate any change in susceptibility
course of colonization after initial clearance ([3]; first study, one mouse in each dose group, not observed in the follow-up study): regrowth to a high number of organisms by the end of the study
mice in which colonization with N. gonorrhoeae MS11 was eliminated by the end of the study ([3]; single oral dose of 100 mg/kg on day 2): 70-80%
mice in which colonization with N. gonorrhoeae MS11 was eliminated by the end of the study ([3]; single oral dose of 200 mg/kg on day 2): 90-100%
mice in which colonization with N. gonorrhoeae MS11 was eliminated by the end of the study ([3]; two 100 mg/kg oral doses administered on the same day): 100%
fAUC0-24 ([4]; single oral dose of 100 mg/kg): 8000 ng·h/mL
fAUC0-24 ([4]; single oral dose of 200 mg/kg): 22000 ng·h/mL
fAUC0-24 ([4]; two 100 mg/kg oral doses on the same day): 16000 ng·h/mL
MIC90 fold higher than that of ceftriaxone ([5]; 30 isolates of N. gonorrhoeae): at least 16 fold
MIC90 fold lower than ciprofloxacin ([5]; 30 isolates of N. gonorrhoeae): at least 8 fold
MIC90 ([5]; 30 isolates of N. gonorrhoeae collected 2003 through 2007, read-out: MIC90 (MIC which inhibits 90% of the isolates tested)): 0.5 µg/mL
MIC90 ([5]; second study, all 145 isolates of N. gonorrhoeae, majority collected in 2013, read-out: MIC90): 0.5 µg/mL
MIC90 ([5]; second study, subset of 37 ciprofloxacin-nonsusceptible isolates, read-out: MIC90): 1 µg/mL
modal value (MIC) ([5]; against the 9 ciprofloxacin-resistant N. gonorrhoeae tested): remained unchanged

Cl.O=c1ccc2ncc(=O)n3c2n1C[C@H]3CN1CCC(NCc2cc3c(cn2)OCCS3)CC1 [Example 19A, (2R)-2-({4-[(2,3-Dihydro[1,4]oxathiino[2,3-c]pyridin-7-ylmethyl)amino]-1-piperidinyl}methyl)-1,2-dihydro-3H,8H-2a,5,8a-triazaacenaphthylene-3,8-dione hydrochloride]
MIC [1, 7]: < 2 µg/mL

O=c1cnc2ccc(=O)n3c2n1C[C@H]3CN1CCC(NCc2cc3c(cn2)OCCC3)CC1 [Example 37, (1R)-1-({4-[(3,4-Dihydro-2H-pyrano[2,3-c]pyridin-6-ylmethyl)amino]-1-piperidinyl}methyl)-1,2-dihydro-3H,8H-2a,5,8a-triazaacenaphthylene-3,8-dione hydrochloride]
MIC [1, 9]: < 2 µg/mL

O=c1ccc2ccc(=O)n3c2n1C[C@H]3CN1CCC(NCc2cc3c(cn2)COC3)CC1 [Example 9, (1R)-1-({4-[(1,3-Dihydrofuro[3,4-c]pyridin-6-ylmethyl)amino]-1-piperidinyl}methyl)-1,2-dihydro-4H,9H-imidazo[1,2,3-ij]-1,8-naphthyridine-4,9-dione hydrochloride]
MIC [6]: ≤ 4 µg/mL

Cl.N#Cc1cc(CNC2CCN(C[C@@H]3Cn4c(=O)ccc5ncc(=O)n3c54)CC2)cc2c1OCCO2 [Example 42, 7-{[(1-{[(2R)-3,8-Dioxo-1,2-dihydro-3H,8H-2a,5,8a-triazaacenaphthylen-2-yl]methyl}-4-piperidinyl)amino]methyl}-2,3-dihydro-1,4-benzodioxin-5-carbonitrile hydrochloride]
MIC [1, 8]: < 2 µg/mL

O=c1ccc2ncc(=O)n3c2n1C[C@H]3CN1CCC(NCc2cc3c(cc2F)OCCO3)CC1 [Example 26, (2R)-2-[(4-{[(7-Fluoro-2,3-dihydro-1,4-benzodioxin-6-yl)methyl]amino}-1-piperidinyl)methyl]-1,2-dihydro-3H,8H-2a,5,8a-triazaacenaphthylene-3,8-dione hydrochloride]
MIC [1, 9]: ≤ 1 µg/mL

O=c1ccc2ncc(=O)n3c2n1C[C@H]3CN1CCC(NCc2ccc3c(c2)OCCO3)CC1 [Example 40, (2R)-2-({4-[(2,3-Dihydro-1,4-benzodioxin-6-ylmethyl)amino]-1-piperidinyl}methyl)-1,2-dihydro-3H,8H-2a,5,8a-triazaacenaphthylene-3,8-dione hydrochloride]
MIC [1, 9]: < 2 µg/mL

O=c1ccc2ncc(=O)n3c2n1C[C@H]3CN1CCC(NCc2ccc3nsnc3c2)CC1 [Example 25, (2R)-2-({4-[(2,1,3-Benzothiadiazol-5-ylmethyl)amino]-1-piperidinyl}methyl)-1,2-dihydro-3H,8H-2a,5,8a-triazaacenaphthylene-3,8-dione hydrochloride]
MIC [1, 9]: ≤ 1 µg/mL

O=C1CSc2ccc(CNC3CCN(CC4Cn5c(=O)ccc6ccc(=O)n4c65)CC3)cc2N1 (racemic) [Example 12, 1-[(4-{[(3-Oxo-3,4-dihydro-2H-1,4-benzothiazin-6-yl)methyl]amino}-1-piperidinyl)methyl]-1,2-dihydro-4H,9H-imidazo[1,2,3-ij]-1,8-naphthyridine-4,9-dione hydrochloride (2:1 mixture of R:S)]
MIC [1, 7]: < 2 µg/mL

O=c1ccc2ccc(=O)n3c2n1CC3CN1CCC(NCc2cc3c(cn2)OCS3)CC1 (stereo not shown) [Example 2, 1-({4-[([1,3]Oxathiolo[5,4-c]pyridin-6-ylmethyl)amino]-1-piperidinyl}methyl)-1,2-dihydro-4H,9H-imidazo[1,2,3-ij]-1,8-naphthyridine-4,9-dione hydrochloride]
MIC [1, 10]: < 2 µg/mL

O=c1ccc2ccc(=O)n3c2n1C[C@H]3CN1CCC(NCc2cc3c(cn2)CCCC3)CC1 [Example 7, (1R)-1-({4-[(5,6,7,8-Tetrahydro-3-isoquinolinylmethyl)amino]-1-piperidinyl}methyl)-1,2-dihydro-4H,9H-imidazo[1,2,3-ij]-1,8-naphthyridine-4,9-dione hydrochloride]
MIC [1, 9]: < 2 µg/mL

O=C1CSc2cnc(CNC3CCN(C[C@@H]4Cn5c(=O)ccc6ccc(=O)n4c65)CC3)nc2N1 [Example 34, (1R)-1-[(4-{[(7-Oxo-6,7-dihydro-1H-pyrimido[5,4-b][1,4]thiazin-2-yl)methyl]amino}-1-piperidinyl)methyl]-1,2-dihydro-4H,9H-imidazo[1,2,3-ij]-1,8-naphthyridine-4,9-dione dihydrochloride]
MIC [1, 10]: < 2 µg/mL
